Where a SMILES comes first, the peptide text is derived from it. The star is where a group is joined. Palmitoyl = CCCCCCCCCCCCCCCC(=O)*
Key:
PAR1 = assay: Baboon ex vivo platelet aggregation, SFLLRN (PAR1); type: in vivo
Experimental: A-C, Male baboons (10-12 kg) were administered 1, 3 or 6 mg/kg PZ-128, or 5% dextrose USP vehicle by iv infusion and blood collected into 100 μg/ml PPACK anticoagulant at 0, 1, 2, 6, or 24 h time points. Light transmission platelet aggregometry was performed with platelet rich plasma with the indicated agonists (SFLLRN for PAR1, AYPGKF for PAR4 and ADP for P2Y12 and P2Y1). Data are reported as mean±SD (n=3-7) relative to time 0 controls (0%) and were analyzed by repeated measures one-way ANOVA with Bonferroni post-test correction; *P<0.05, **P<0.01 relative to time 0. Global P values were >0.05 for 1 mg/kg, 0.004 for 3 mg/kg, <0.0001 for 6 mg/kg. D, Pharmacokinetics of 3 and 6 mg/kg 45-min iv infusions of PZ-128 in male baboons. Plasma PZ-128 levels were measured by LC/MS/MS at 9 sequential time points: baseline, 15 min, 30 min, 1 h, 2 h, 4 h, 8 h, 24 h and 48 h after the start of infusion. Open symbols indicated plasma concentrations that were under the measurement threshold (5 ng/ml).
The anti-platelet effects of PZ-128 micelles were next examined in baboons at various time points after receiving different doses of intravenous infusions. […] At the lowest dose tested, 1 mg/kg PZ-128 micelles ([…]), PAR1-dependent aggregation (5 μM SFLLRN) was inhibited by only 5-10% at the 1-2 h time points (FIG. 3A). […] As a further assessment of in vivo specificity, PZ-128 gave no inhibition at any dose of either the ADP or AYPGKF (PAR4) responses at any time point.
Non-terminal thrombosis and platelet aggregation studies were performed on 12 healthy male baboons (Papio anubis) weighing 9-12 kg at the Oregon National Primate Research Center (ONPRC). […] Whole blood (10 ml) was collected into PPACK at a final concentration of 100 μg/ml just prior to infusion (baseline) and 15 min to 24 h after the PZ-128 micelle infusion was terminated. Platelet counts and hematocrit were measured immediately. PRP was prepared from whole blood and platelet aggregation performed as described above. Bleeding time (BT) measurements were performed on the shaved volar surface of the forearm using the standard template method.

[1] = PT, aPTT, bleeding and plasma levels in cynomolgus monkeys after daily iv infusions; type: in vivo; conditions: cynomolgus monkey
Experimental: PZ-128 micelles were also administered daily for 4 days to adult male and female cynomolgus monkeys with 1 h iv infusions of 3 mg/kg, 10 mg/kg and 30 mg/kg PZ-128. Coagulation parameters prothrombin time (PT) and activated partial thromboplastin time (aPTT) were unaffected in all monkeys at 3-30 mg/kg PZ-128 at either day 1 and day 5 as compared to baseline or vehicle-treated animals (Table 2).
PZ-128 micelles (0, 3, 10 or 30 mg/kg) were administered intravenously to 2.5-4.5 kg male and female cynomolgus monkeys by infusion over 1 h at MPI Laboratories (Mattawan, Mich.). Peripheral venous blood was collected from cynomolgus monkeys into K3EDTA anticoagulant at baseline (Day −8) and at two time points (Day 1 and Day 5) after daily 1-h intravenous PZ-128 micelle infusions on days 1-4. PT and aPTT were analyzed immediately on a MLA-800 coagulation analyzer.

PAR4 = molecular target: T1, PAR4 (Homo sapiens, UniProt Q96RI0); assay: Human platelet aggregation, PAR4 agonist AYPGKF; type: cell-based; conditions: human platelets; 200 μM AYPGKF
T1 construct: Platelets were isolated from platelet rich plasma (PRP) using Sepharose 2B columns; endogenous in cells; host or cells: human platelets from healthy donors, gel-filtered
T1 sequence (Q96RI0 18-385): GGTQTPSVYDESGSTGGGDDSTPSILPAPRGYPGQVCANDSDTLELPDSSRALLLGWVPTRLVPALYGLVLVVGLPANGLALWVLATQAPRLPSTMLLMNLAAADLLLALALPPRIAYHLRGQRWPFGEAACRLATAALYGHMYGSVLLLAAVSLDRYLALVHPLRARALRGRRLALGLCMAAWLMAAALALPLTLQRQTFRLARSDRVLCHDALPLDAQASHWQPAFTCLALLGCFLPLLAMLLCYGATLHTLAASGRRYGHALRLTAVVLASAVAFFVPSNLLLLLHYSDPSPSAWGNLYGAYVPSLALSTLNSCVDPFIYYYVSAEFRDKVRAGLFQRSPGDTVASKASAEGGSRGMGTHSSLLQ
Experimental: (§1) A, Depiction of the mechanism of action of the cell-penetrating PZ-128 pepducin compound targeting the third intracellular loop (red) of PAR1. B, The NMR structure of PZ-128 was determined by simulated annealing methods using 210 distance restraints and included restraints to the proximal 3 hydrocarbons of the lipid. […] D, PZ-128 inhibits PAR1-dependent platelet aggregation. Gel filtered human platelets were treated with various concentrations of PZ-128 and then challenged with the PAR1 agonist SFLLRN (2.5 μM), 20 μM ADP, 200 μM AYPGKF or 1 mg/ml Ristocetin. E, Human platelets were treated with 3 μM PZ-128, 3 μM RWJ-56110, or 5% dextrose vehicle before the addition of various concentrations of thrombin (n=3-5).
(§2) PZ-128 also markedly right-shifted thrombin-induced aggregation by 5-fold. By comparison, the small molecule RWJ-56110 which antagonizes PAR1 at the extracellular ligand-binding site gave a 2-fold right shift in the thrombin activation curve of human platelets.
(§3) Whole blood from healthy donors was collected into a 30 ml syringe containing sodium citrate (0.4% vol/vol final). Platelets were isolated from platelet rich plasma (PRP) using Sepharose 2B columns in modified PIPES buffer.

human platelets (ADP) = assay: Human platelet aggregation, ADP; type: cell-based; conditions: 20 μM ADP
Experimental: as §1, §2, §3

[2] = 3-30 mg/kg, 1 h iv infusion daily for 4 days, day 1 and day 5

CCCCCCCCCCCCCCCC(=O)N[C@@H](CCCCN)C(=O)N[C@@H](CCCCN)C(=O)N[C@@H](CO)C(=O)N[C@@H](CCCNC(=N)N)C(=O)N[C@@H](C)C(=O)N[C@@H](CC(C)C)C(=O)N[C@@H](Cc1ccccc1)C(N)=O [PZ-128, palmitate-KKSRALF-NH2] (Palmitoyl-KKSRALF-NH2)
Inhibition of PAR1-dependent ex vivo aggregation (PAR1; 1 mg/kg, 30 min infusion, 5 μM SFLLRN, 1-2 h): 5-10% | Reversibility: inhibition with higher concentration of SFLLRN agonist (PAR1; 3 mg/kg and 6 mg/kg, 10 μM SFLLRN): loss of inhibition | Inhibition of PAR1-dependent ex vivo aggregation (PAR1; 3 mg/kg, 30 min infusion, 1 h and 2 h): 85% | Inhibition of PAR1-dependent ex vivo aggregation (PAR1; 3 mg/kg, 24 h): not appreciably inhibited | Inhibition of PAR1-dependent ex vivo aggregation (PAR1; 6 mg/kg, 45 min infusion, 1-2 h): 100% | Inhibition of PAR1-dependent ex vivo aggregation (PAR1; 6 mg/kg, 45 min infusion, 6 h): 90% | PAR1-dependent ex vivo aggregation, recovery (PAR1; 6 mg/kg, 24 h): completely recovered | Cmax ([1]; both sexes, plasma, up to 30 mg/kg iv infusion): > 200 µM | Spontaneous, venous access, or retinal bleeding ([1]; 3-30 mg/kg daily iv): No spontaneous, venous access, or retinal bleeding was observed | Activated partial thromboplastin time (aPTT) [1, 2]: unaffected | Prothrombin time (PT) [1, 2]: unaffected | Inhibitory activity against PAR4 (AYPGKF) aggregation (PAR4): no inhibitory activity | Inhibitory activity against ADP aggregation (human platelets (ADP)): no inhibitory activity
